Reference: patent publication US20260345591A1, “COMBINATIONS OF ESTROGEN RECEPTOR DEGRADERS AND CDK4 INHIBITORS” (PFIZER INC., priority 2023, published 2026)
“Also recorded” adds a separate entry of the source.

Experiments:
[1] = test system: MCF7 xenograft model; experiment: Tumor growth inhibition (anti-tumor efficacy) in MCF7 xenograft model, HR+/HER2- breast cancer; type: in vivo, Mus musculus (NSG mice); details: for TGI / TGI, statistical significance (ANCOVA): Day 41
Procedure: To generate MCF7 PO donors, cells were obtained from ATCC and cultured in RPM11640 supplemented with 10% FBS. All cells were maintained in a humidified incubator at 37 °C with 5% CO2.
To establish the MCF7 PO donor mice, cells (5×10^6/mouse with 50% Cultrex® Basement Membrane Matrix) were subcutaneously (in 0.2 mL total volume) implanted in female NSG mice supplemented with 17β-ESTRADIOL water ad libidum (8.5 μg/mL concentration). The 17β-ESTRADIOL water supplement was administered about 7 days before the implant and all throughout the duration of the study.
(§1) To establish the MCF7 P1, when tumor volume of MCF7 PO donor mice reached a range of 700 to 800 mm3, tumors were collected and cut into fragments. The fragments were subsequently transplanted into secondary recipient mice for TGI study expansion. Secondary recipient mice were than randomly assigned to groups (n=10) when tumor volumes reached a range between 143 mm3 and 209 mm3 and subsequently treated with: 1) vehicle (0.5% methylcellulose A4M/water), PO; 2) fulvestrant at 10 mg/kg twice in the first week, then weekly afterwards, SC; 3) Compound A at 30 mg/kg QD, PO; 4) Compound B at 30 mg/kg BID, PO; 5) Compound B at 60 mg/kg BID, PO; 6) Compound B at 30 mg/kg plus fulvestrant; 7) Compound B at 60 mg/kg plus fulvestrant; 8) Compound B at 30 mg/kg plus Compound A; 9) Compound B at 60 mg/kg plus […]; 10) palbociclib at 10 mg/kg BID, PO plus Compound A. All mice received treatment continuously until Day 42. TGI was assessed on Day 41 post first dose.
For the efficacy measurements, tumor volume and body weights were collected twice a week. Tumor volume was calculated using the [(Length×Width×Width)/2)] formula. TGI was calculated as 100*(1−ΔT/ΔC). The ΔC (ΔT) was obtained by subtracting the mean tumor burden in the vehicle (treated) group on the first day of treatment (Day 0) from the mean tumor burden in vehicle (treated) group on the assessment day. Statistical analysis was performed using TGI Analyzer ANCOVA. BLISS statistical analysis (statistical modeling of single drug response from drug combination data) was used to measure synergy effect, a combination is synergistic if the tumor volume is less than the BLISS with pvalue of <0.05.
Compound B was tested at two CRD dose levels (30 mg/kg, BID and 60 mg/kg, BID) as a single agent or in combination with Compound A at 30 mg/kg QD or fulvestrant at CRD (10 mg/kg). Palbociclib at CRD (10 mg/kg, BID) in combination with Compound A served as a positive comparator.

[2] = test system: HR+HER2− BC Xenograft Model MCF7; experiment: Tumor regrowth after end of treatment in MCF7 xenograft model; type: in vivo, Mus musculus (NSG mice); details: fulvestrant 10 mg/kg alone; Compound A 30 mg/kg QD alone; palbociclib 10 mg/kg BID + Compound A 30 mg/kg QD
Procedure: as §1
For the efficacy measurements, tumor volume and body weights were collected twice a week. Tumor volume was calculated using the [(Length×Width×Width)/2)] formula. TGI was calculated as 100*(1−ΔT/ΔC). […]
Tumor growth delay was monitored after treatment was discontinued on Day 43 and statistical analysis was performed on Day 26 post last dose (Day 69 post study start).

[3] = Biopharmaceutics Classification System (solubility/permeability); type: physicochemical
[4] = Interconversion to epimer; type: physicochemical
[5] = Preclinical exposure of epimer Compound C compared to Compound A; type: in vivo; details: preclinical data
[6] = biological target: T1, estrogen receptor (Homo sapiens, UniProt P03372); experiment: Degradation of the estrogen receptor; type: cell-based; details: preclinical data
T1 construct: cereblon-recruiting PROTAC degradation
T1 sequence (P03372 1-595): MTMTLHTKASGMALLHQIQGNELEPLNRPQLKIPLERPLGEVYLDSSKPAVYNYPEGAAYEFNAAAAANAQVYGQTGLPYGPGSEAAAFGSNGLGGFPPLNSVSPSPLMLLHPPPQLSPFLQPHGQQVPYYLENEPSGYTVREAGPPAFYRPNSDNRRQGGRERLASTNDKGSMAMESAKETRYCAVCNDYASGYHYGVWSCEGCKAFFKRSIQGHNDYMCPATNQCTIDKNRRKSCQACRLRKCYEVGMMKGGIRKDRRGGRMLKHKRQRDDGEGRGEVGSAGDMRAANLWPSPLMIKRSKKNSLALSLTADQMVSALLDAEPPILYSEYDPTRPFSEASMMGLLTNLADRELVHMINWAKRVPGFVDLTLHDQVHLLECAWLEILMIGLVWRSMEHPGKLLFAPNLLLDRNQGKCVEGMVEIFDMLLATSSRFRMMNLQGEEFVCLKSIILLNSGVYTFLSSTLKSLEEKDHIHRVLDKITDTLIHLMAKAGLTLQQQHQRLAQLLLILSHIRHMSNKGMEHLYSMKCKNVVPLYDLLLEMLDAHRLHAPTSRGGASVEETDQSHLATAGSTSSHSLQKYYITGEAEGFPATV

[7] = fulvestrant 10 mg/kg alone, Compound A 30 mg/kg QD alone, palbociclib 10 mg/kg BID + Compound A 30 mg/kg QD

O=C1CC[C@H](N2Cc3cc(N4CCN(CC5CCN(c6ccc([C@@H]7c8ccc(O)cc8CC[C@@H]7c7ccccc7)cc6)CC5)CC4)ccc3C2=O)C(=O)N1 [Compound A, (S)-3-(5-(4-((1-(4-((1R,2S)-6-hydroxy-2-phenyl-1,2,3,4-tetrahydronaphthalen-1-yl)phenyl)piperidin-4-yl)methyl)piperazin-1-yl)-1-oxoisoindolin-2-yl)piperidine-2,6-dione]
TGI ([1]; Compound A 30 mg/kg PO QD × 42 D): 119%
TGI, statistical significance (ANCOVA) ([1]; Compound A 30 mg/kg QD, alone or with palbociclib 10 mg/kg BID): *α+βγ
antitumor efficacy [1, 7]: significant tumor regression; also recorded: no significant differences in the TGI
Tumor regrowth, ANCOVA Analysis (Day 26 post end of treatment) [2]: β (indicates p < 0.05 versus Compound B single agent)
Biopharmaceutics Classification System class [3]: Class IV compound (low solubility/low permeability)
interconversion to epimer Compound C [4]: can interconvert to its epimer

CC(C)n1c(C(C)(C)O)nc2c(F)cc(-c3nc(N[C@@H]4CCOC[C@H]4O)ncc3Cl)cc21 [Compound B, 1,5-anhydro-3-({5-chloro-4-[4-fluoro-2-(2-hydroxypropan-2-yl)-1-(propan-2-yl)-1H-benzimidazol-6-yl]pyrimidin-2-yl}amino)-2,3-dideoxy-D-threo-pentitol]
TGI ([1]; Compound B 30 mg/kg PO BID × 42 D): 62%
TGI ([1]; Compound B 60 mg/kg PO BID × 42 D): 81%
TGI, statistical significance (ANCOVA) ([1]; Compound B at 30 mg/kg BID, alone or + fulvestrant 10 mg/kg): *α ^
TGI, statistical significance (ANCOVA) ([1]; Compound B at 60 mg/kg BID, alone, + fulvestrant 10 mg/kg or + Compound A 30 mg/kg QD): *+α
antitumor efficacy ([1]; Compound B at 30 and 60 mg/kg BID, alone or + Compound A 30 mg/kg QD): significant tumor growth inhibition; also recorded: significant efficacy

O=C1CC[C@@H](N2Cc3cc(N4CCN(CC5CCN(c6ccc([C@@H]7c8ccc(O)cc8CC[C@@H]7c7ccccc7)cc6)CC5)CC4)ccc3C2=O)C(=O)N1 [Compound C]
exposure of Compound C compared to Compound A [5]: < 26%
degradation of the estrogen receptor [6]: does not degrade the estrogen receptor

C[C@]12CC[C@@H]3c4ccc(O)cc4C[C@@H](CCCCCCCCC[S+]([O-])CCCC(F)(F)C(F)(F)F)[C@H]3[C@@H]1CC[C@@H]2O (stereo partly drawn) [Fulvestrant, fulvestrant, reference compound]
TGI ([1]; fulvestrant 10 mg/kg SC, D 1, D 3, then 1x/week × 5 W): −7%
antitumor efficacy [1, 7]: no tumor growth inhibition
